What all share (assay): 3H GABA uptake, corrected iPSC astrocytes transfected with GAT-1^YFP cDNA
Holding throughout (assay type): cell-based

The target of one test is T1, GAT-1 A288V (Rattus norvegicus, UniProt P23978, A288V).
T1 construct: The coding region of rGAT-1 was inserted into pEYFP-C1 (Clontech, Palo Alto, CA); expressed in transfected cells; host or cells: HEK293T cells (A4); astrocytes from corrected human iPSCs (A24)
Particulars: 2 mM PBA, 24 hrs. Here is the method: (§1) Live images of human neural progenitor cells (NPCs), astrocytes and GABAergic inhibitory neurons differentiated from the human induced pluripotent stem cells (iPSCs) on the day of experiment. […] The DMSO treated corrected or patient cells was taken as 1. […] GABA flux was measured after 30 min transport at room temperature. The influx of GABA, expressed in pmol/μg protein/min, was averaged from duplicates for each condition and for each transfection. The average counting was DMSO treated condition taken as 1. In FIG. 5B, FIG. 5D and FIG. 5F, 966 stands for CI-966 (50 μM) and 711 stands for NNC-711 (35 μM) that was applied 30 min to the astrocytes transfected with the wildtype GAT-1^YFP before preincubation and removed during preincubation. In FIGS. 5B and D, ***p<0.001 vs. corrected DMSO treated. § § <0.01, § § § p<0.001 vs. patient DMSO treated. […] In FIGS. 5B-E, n=4-8 batches of cells. In FIG. 5F, n=4-5 different transfections). Unpaired t test was used for FIG. 5C and FIG. 5E. One-way analysis of variance followed by a Dunnett post hoc multiple comparison test was used in FIG. 5B, FIG. 5D and FIG. 5F. Values were expressed as mean±S.E.M.).
(§2) The plasmid cDNA encoding enhanced yellow fluorescent protein (EYFP)-tagged rat GAT-1 has been previously described. The coding region of rGAT-1 was inserted into pEYFP-C1 (Clontech, Palo Alto, CA). QuikChange Site-directed Mutagenesis kit was utilized to introduce the GAT-1 variants into a wildtype GAT-1 plasmid. The product was then amplified via polymerase chain reaction, transformed using DH5a competent cells, and plated. A clone was chosen and grown overnight. All the GAT-1 variants were confirmed by DNA sequencing. Both the wildtype and the variant cDNAs were prepared with Qiagen Maxiprep kit.
(§3) Astrocytes were differentiated starting from day 5 of NPC passage 1 with the astrocyte culture medium from Sciencell (catalog 1801) following the protocol as previously described. The cell culture medium was refreshed every other day and the cells were passaged at ˜70% confluency. About 1.5×10^5 cells were seeded in each 35 mm dish or each well in 6-well plate when passaging. The differentiation was continuous until the day 30 and all the astrocytes used in experiments in this study were at day 30 after differentiation.
(§4) Briefly, cells were cultured in […] dishes for 3 days before the GABA uptake experiment in DMEM with 10% fetal bovine serum and 1% penicillin/streptomycin. The cells were then transfected with equal amounts of the wildtype or the mutant GAT-1 cDNAs (1 μg) for each condition at 24 hrs or 48 hrs after plating. GABA uptake assay was carried out 48 hrs after transfection. The cells were incubated with preincubation solution for 15 min and then incubated with preincubation solution containing 1 μci/mL 3H GABA and 10 μM unlabeled GABA for 30 min at room temperature. After washing, the cells were lysed with 0.25 N NaOH for 1 hr. Glacial acetic acid was added, and lysates were then determined on a liquid scintillator with QuantaSmart. The flux of GABA (pmol/μg/min) was averaged with at least triplets for each condition at each transfection. The average counting was taken as n=1. The untransfected condition was taken as a baseline that was subtracted from both the wildtype and the mutant conditions. The pmol/μg/min in the mutant was then normalized to the wildtype from each experiment, which was arbitrarily taken as 100%. The protocols for GABA reuptake assay in cultured mouse astrocytes, neuron or iPSC derived cells were modified from the GABA uptake protocol on HEK 293T cells. GAT-1 inhibitors CL-966 and NNC-711 were applied each time to make sure the radioactive counts were specific.
(§5) The working solution was stored at 4° C.
(§6) Wildtype or the mutant GAT-1^YFP were transfected (1 μg cDNAs per 35 mm^2 dishes) in the astrocytes derived from the corrected iPSCs for 48 hrs. […]

Another test deals with T2, GAT-1 D410E (Rattus norvegicus, UniProt P23978, D410E).
T2 construct: The coding region of rGAT-1 was inserted into pEYFP-C1 (Clontech, Palo Alto, CA); expressed in transfected cells; host or cells: HEK293T cells (A7); astrocytes from corrected human iPSCs (A27)
As to conditions: 2 mM PBA, 24 hrs. As to the method: as §1, §2, §3, §4, §5, §6

Another test addresses T3, GAT-1 G362R (Rattus norvegicus, UniProt P23978, G362R).
T3 construct: The coding region of rGAT-1 was inserted into pEYFP-C1 (Clontech, Palo Alto, CA); expressed in transfected cells; host or cells: human astrocytes differentiated from CRISPR-corrected patient iPSCs
As to conditions: 2 mM PBA, 24 hrs. As to the method: as §1, §2, §3, §4, §5, §6

The target of a further test is T4, GAT-1 V125M (Rattus norvegicus, UniProt P23978, V125M).
T4 construct: The coding region of rGAT-1 was inserted into pEYFP-C1 (Clontech, Palo Alto, CA); expressed in transfected cells; host or cells: HEK293T cells (A3); astrocytes from corrected human iPSCs (A23)
As to conditions: 2 mM PBA, 24 hrs. Here is the method:
as §1, §2, §3, §4, §5, §6

A further test deals with T5, GAT-1(W495X) (Rattus norvegicus, UniProt P23978).
T5 construct: The coding region of rGAT-1 was inserted into pEYFP-C1 (Clontech, Palo Alto, CA); expressed in transfected cells; host or cells: human astrocytes differentiated from CRISPR-corrected patient iPSCs
As to conditions: 2 mM PBA, 24 hrs. As to the method:
as §1, §2, §3, §4, §5, §6

For the next test, the target named is T6, wildtype GAT-1 (Rattus norvegicus, UniProt P23978).
T6 construct: The coding region of rGAT-1 was inserted into pEYFP-C1 (Clontech, Palo Alto, CA); expressed in transfected cells; host or cells: HEK293T cells (A1); astrocytes from corrected human iPSCs (A21)
Particulars: corrected astrocytes transfected with wt; 2 mM PBA, 24 hrs. Here is the method:
as §1, §2, §3, §4, §5, §6

With `O=C(O)CCCc1ccccc1` [PBA, 4-phenylbutyric acid], the “GABA uptake normalized to its DMSO treated” value is 1.204±0.031 on GAT-1 A288V; 1.21±0.022 on GAT-1 D410E; 1.25±0.023 at GAT-1 G362R; 1.285±0.018 on GAT-1 V125M; 1.45±0.04 at GAT-1(W495X); 1.188±0.075 at wildtype GAT-1.

(Values after patent US20260144769A1, “4-PHENYLBUTYRATE RESTORED GABA UPTAKE AND REDUCED SEIZURES IN SLC6A1 VARIANT-MEDIATED DISORDERS” (Vanderbilt University, priority 2022, published 2026).)
